Test [1] deals with T1, 17β-HSD3 (Homo sapiens, UniProt P37058).
T1 construct: expressed in transfected cells; host or cells: HEK-293 (homogenate)
T1 sequence (P37058 1-310): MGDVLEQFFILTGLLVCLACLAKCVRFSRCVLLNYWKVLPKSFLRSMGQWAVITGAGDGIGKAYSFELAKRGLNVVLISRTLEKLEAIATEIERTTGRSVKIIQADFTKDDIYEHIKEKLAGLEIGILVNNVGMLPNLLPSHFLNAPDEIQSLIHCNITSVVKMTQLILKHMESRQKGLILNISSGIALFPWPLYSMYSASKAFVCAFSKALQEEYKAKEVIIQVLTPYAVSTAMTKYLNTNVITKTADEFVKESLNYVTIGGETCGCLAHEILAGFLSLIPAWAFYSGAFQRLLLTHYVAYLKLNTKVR
The test is described as follows: Inhibition of 17β-HSD3 in homogenated HEK-293 cells. The test is classed as biochemical.

Test [2] deals with T1, 17β-HSD3. The test is described as follows: Inhibition of 17β-HSD3 in intact HEK-293 cells. Particulars: 0.1 μM; for inhibition at 0.1 µM: HEK293, 1 h. The test is classed as cell-based.
A further test concerns the target T2, 17β-HSD10 (Homo sapiens, UniProt Q99714).
T2 construct: expressed in transfected cells
T2 sequence (Q99714 1-261): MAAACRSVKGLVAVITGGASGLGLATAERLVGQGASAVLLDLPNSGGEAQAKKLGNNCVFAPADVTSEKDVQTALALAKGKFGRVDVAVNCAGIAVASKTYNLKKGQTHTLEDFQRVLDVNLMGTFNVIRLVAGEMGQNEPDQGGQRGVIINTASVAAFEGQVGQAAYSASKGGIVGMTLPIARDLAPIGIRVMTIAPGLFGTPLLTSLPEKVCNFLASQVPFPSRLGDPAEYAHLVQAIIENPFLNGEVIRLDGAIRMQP
The test is described as follows: Inhibition of 17β-HSD10 in stably transfected HEK-293 whole cells (E2 into E1). It counts as cell-based.

A further test addresses T3, 17β-HSD1 (Homo sapiens, UniProt P14061).
T3 construct: endogenous in cells; host or cells: T-47D
T3 sequence (P14061 1-328): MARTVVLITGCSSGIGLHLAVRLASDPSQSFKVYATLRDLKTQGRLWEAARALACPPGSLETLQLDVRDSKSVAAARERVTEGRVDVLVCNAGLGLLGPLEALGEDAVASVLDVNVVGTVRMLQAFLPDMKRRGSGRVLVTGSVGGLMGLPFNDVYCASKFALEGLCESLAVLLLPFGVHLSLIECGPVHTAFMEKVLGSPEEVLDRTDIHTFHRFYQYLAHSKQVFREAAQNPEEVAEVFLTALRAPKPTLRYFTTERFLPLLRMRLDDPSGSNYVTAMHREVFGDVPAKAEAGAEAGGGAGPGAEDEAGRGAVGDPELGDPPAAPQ
In words: Inhibition of 17β-HSD1 in T-47D intact cells (E1 into E2). Particulars: T47D; for inhibition at 0.1 µM: read-out: Inhibition (0.1 μM); for inhibition at 1 µM: read-out: Inhibition (1 μM). The test is classed as cell-based. The method, then: T-47D cells were seeded in a 24-well plate (3000 cells/well) in medium supplemented with insulin (50 ng/mL) and 5% dextran-coated charcoal treated FBS rather than 10% FBS to remove remaining hormones. […] Each inhibitor was assessed in triplicate. After incubation, the culture medium was removed and labelled steroids (E1 and E2) extracted with 1 mL of diethyl ether. The organic phases were separated and evaporated to dryness using nitrogen. Residues were dissolved in dichloromethane and dropped on silica gel thin layer chromatography plates (EMD Chemicals Inc., Gibbstown, N.J., USA) and eluted with a toluene/acetone (4:1) solvent system. Substrate [^14C]-E1 and metabolite [^14C]-E2 were identified by comparison with reference steroids and quantified using a Storm 860 system (Molecular Dynamics, Sunnyvale, Calif., USA).
T-47D cells were seeded in a 24-well plate (3000 cells/well) in 990 μL of medium supplemented with insulin (50 ng/mL) and 5% dextran-coated charcoal-treated FBS, which was used rather than untreated 10% FBS, to remove the remaining steroid hormones. […] The final concentration of ethanol in the well was adjusted to 0.1%. Additionally, 5 μL of a solution of [^14C]-estrone (American Radiolabeled Chemicals, Inc., St. Louis, Mo., USA) was added to obtain a final concentration of 60 nM. […] After incubation, the culture medium was removed and labeled steroids (E1 and E2) were extracted with 1 mL of diethyl ether. The organic phases were evaporated to dryness with nitrogen. Residues were dissolved in dichloromethane and dropped on silica gel thin layer chromatography plates (EMD Chemicals Inc., Gibbstown, N.J., USA) and eluted with toluene/acetone (4:1) as solvent system. Substrate [^14C]-E1 and metabolite [^14C]-E2 were identified by comparison with reference steroids (E1 and E2) and quantified using the Storm 860 system (Molecular Dynamics, Sunnyvale, Calif., USA).

For the next test, the system named is MCF-7 cells. In words: Estrogenic activity in MCF-7 cells. Note: key: — = no; + = weak; ++ = medium to strong. Particulars: growth of estrogen-starved MCF-7 cells, 7 days. The test is classed as cell-based, human. The method, then:
MCF-7 cells were seeded with medium supplemented with insulin (50 ng/mL) and 5% dextran-coated charcoal treated FBS rather than 10% FBS to remove remaining hormones. Aliquots (100 μL) of the cell suspension were seeded in 96-well plates (3000 cells/well). […] Cells were grown either in the absence or presence of the compounds over a period of 7 days. Quantification of cell growth was determined by using the CellTiter 96®Aqueous Solution Cell Proliferation Assay (Promega, Nepean, ON, Canada) following the manufacturer's instructions. To determine the proliferative (estrogenic) activity, the cells were grown in the absence (control fixed as 100%) or presence of the tested compounds at the indicated concentrations.

The mark [3] stands for this setting: [14C]-E2 (1 μM) into [14C]-E1, intact HEK-293 cells, 1 μM.
Where [4] appears, read: Table 2 (17β-HSD1), [14C]-E1 60 nM, T-47D intact cells, 0.1 μM.
The mark [5] stands for this setting: Table 2 (17β-HSD1), [14C]-E1 60 nM, T-47D intact cells, 1 μM.

Each structure is given as a SMILES string. pIC50: −log10 of the molar value. Where two headings read alike, the source gives them in different places.

On to `C[C@]12CC[C@](O)(CN3CCN(S(=O)(=O)c4ccccc4C(F)(F)F)CC3)C[C@@H]1CC[C@@H]1[C@@H]2CC[C@]2(C)C(=O)CC[C@@H]12` [Compound 14b, (3α,5α)-3-hydroxy-3-[(4-{[2-(trifluoromethyl)phenyl]sulfonyl}piperazin-1-yl)methyl]androstan-17-one], for which, at 17β-HSD3 [1] (Table 3, read-out: Homo (%) (0.01 μM)), the inhibition at 0.01 µM is 45%. Also, the inhibition at 0.1 µM at 17β-HSD3 [1] (Table 3, read-out: Homo (%) (0.1 μM)) amounted to 92%; at 17β-HSD3 [2] (Table 3, read-out: Intact cells (%) (0.1 μM)) it was 45%. The inhibition at 1 µM at 17β-HSD10 (HEK293, [14C]-E2 (1 μM) into [14C]-E1, intact HEK-293 cells, 1 μM, read-out: Inhibition (%) at 1 μM) is 32%.
For `C[C@]12CC[C@](O)(CN3CCN(S(=O)(=O)c4ccc(C(F)(F)F)cc4)CC3)C[C@@H]1CC[C@@H]1[C@@H]2CC[C@]2(C)C(=O)CC[C@@H]12` [Compound 14c, (3α,5α)-3-hydroxy-3-[(4-{[4-(trifluoromethyl)phenyl]sulfonyl}-piperazin-1-yl)methyl]androstan-17-one], the inhibition at 0.01 µM on 17β-HSD3 [1] (read-out: Homo (%) (0.01 μM), Table 3) was 21%. Besides, the inhibition at 0.1 µM was found to be 78% at 17β-HSD3 [1] (read-out: Homo (%) (0.1 μM), Table 3) and 34% at 17β-HSD3 [2] (read-out: Intact cells (%) (0.1 μM), Table 3). Further, the inhibition at 1 µM at 17β-HSD10 (HEK293, read-out: Inhibition (%) at 1 μM) worked out at 14%.
Take `CC1CN(S(=O)(=O)c2cccc(C(F)(F)F)c2)C(C)CN1C[C@@]1(O)CC[C@@]2(C)[C@@H](CC[C@@H]3[C@@H]2CC[C@]2(C)C(=O)CC[C@@H]32)C1` (stereo partly drawn) [Compound 15a, (3α,5α)-3-{[(2ξ,5ξ)-2,5-dimethyl-4-{[3-(trifluoromethyl)phenyl]sulfonyl}piperazin-1-yl]methyl}-3-hydroxyandrostan-17-one]: on 17β-HSD3 [1] (Table 3), the “Homo (%) (0.01 μM)” value was determined as 32% and the “Homo (%) (0.1 μM)” value is on record as 91%. In addition, the “Intact cells (%) (0.1 μM)” value on 17β-HSD3 [2] (Table 3) is on record as 77%. Further, the “Inhibition (%) at 1 μM” value on 17β-HSD10 (setting [3]) is 42%.
For `CC1CN(S(=O)(=O)c2ccccc2C(F)(F)F)C(C)CN1CC1(O)CCC2(C)C(CCC3C4CCC(=O)C4(C)CCC32)C1` (stereo not shown) [Compound 15c], on 17β-HSD3 [1] (Table 3), the “Homo (%) (0.01 μM)” value stood at 79% and the “Homo (%) (0.1 μM)” value is listed as 92%. Also, the “Intact cells (%) (0.1 μM)” value at 17β-HSD3 [2] (Table 3) amounted to 47%. On 17β-HSD10 (setting [3]), the “Inhibition (%) at 1 μM” value was 18%.
Broadly, the pIC50 is the IC50 on a negative log10 scale, so that one unit is a factor of ten. In the case of `C[C@]12CC[C@@]3(C[C@@H]1CC[C@@H]1[C@@H]2CC[C@]2(C)C(=O)CC[C@@H]12)CN(CCO)C(=O)O3` [Compound 21, (3R,5S,8R,9S,10S,13S,14S)-3′-(2-hydroxyethyl)-10,13-dimethyltetrahydrodecahydro-2′H-spiro[cyclopenta[α]phenanthrene-3,5′-[1,3]oxazolidine]-2′,17(2H)-dione], on 17β-HSD3 [1] (read-out: Homo (%) (0.01 μM), Table 4), the inhibition at 0.01 µM is 0%. The inhibition at 0.1 µM on 17β-HSD3 [1] (read-out: Homo (%) (0.1 μM), Table 4) was found to be 9%. Moreover, the inhibition at 1 µM at 17β-HSD3 [1] (read-out: Homo (%) (1.0 μM), Table 4, 1.0 μM) worked out at 38%. The “Intact cells (%) (0.1 μM), tested in another experiment” value on 17β-HSD3 [2] (Table 4, footnote b) is 16^b %. The pIC50 on 17β-HSD10 (intact transfected HEK-293 cells, E2 1 μM, read-out: IC50) was 6.26.
`C[C@]12CC[C@@H]3c4ccc(CC(=O)O)cc4CC[C@H]3[C@@H]1C[C@H](Cc1cccc(C(N)=O)c1)[C@@H]2O` [Compound 31, [(16β,17β)-16-(3-carbamoylbenzyl)-17-hydroxyestra-1(10),2,4-trien-3-yl]acetic acid]: on 17β-HSD1 (setting [4]), the inhibition at 0.1 µM came out at 12%. The inhibition at 1 µM at 17β-HSD1 (setting [5]) is 29%. In addition, the “Estrogenicity (1.0 μM)” value in the test on MCF-7 cells is “+”.
Turning to `C[C@]12CC[C@@H]3c4ccc(C(=O)O)cc4CC[C@H]3[C@@H]1C[C@H](Cc1cccc(C(N)=O)c1)[C@@H]2O` [Compound 36, (16β,17β)-16-(3-carbamoylbenzyl)-17-hydroxyestra-1,3,5(10)-triene-3-carboxylic acid], the inhibition at 0.1 µM at 17β-HSD1 (setting [4]) came out at 5%. Besides, the inhibition at 1 µM at 17β-HSD1 (setting [5]) was determined as 8%. The “Estrogenicity (1.0 μM)” value in the test on MCF-7 cells is reported as “++”.
As for `C[C@]12CC[C@@H]3c4ccc(CN)cc4CC[C@H]3[C@@H]1C[C@H](Cc1cccc(C(N)=O)c1)[C@@H]2O` [Compound 39, 3-{[(16β,17β)-3-(aminomethyl)-17-hydroxyestra-1,3,5(10)-trien-16-yl]methyl}benzamide], on 17β-HSD1, the inhibition at 0.1 µM stood at 35% and the inhibition at 1 µM was 73%. For the same compound, in the test with MCF-7 cells, the “Estrogenicity (0.1 μM)” value is on record as “++” and the “Estrogenicity (1.0 μM)” value was “++”.
In the case of `CNC(=O)c1ccc2c(c1)CC[C@@H]1[C@@H]2CC[C@]2(C)[C@@H](O)[C@@H](Cc3cccc(C(N)=O)c3)C[C@@H]12` [Compound 41d, (16β,17β)-16-(3-carbamoylbenzyl)-17-hydroxy-N-methylestra-1,3,5(10)-triene-3-carboxamide], at 17β-HSD1, the inhibition at 0.1 µM was 3% and the inhibition at 1 µM was 5%. Further, the “Estrogenicity (1.0 μM)” value in the test on MCF-7 cells is “+”.
`C[C@]12CC[C@@H]3c4ccc(B(O)O)cc4CC[C@H]3[C@@H]1C[C@H](Cc1cccc(C(N)=O)c1)[C@@H]2O` [Compound 46, [(16β,17β)-16-(3-carbamoylbenzyl)-17-hydroxyestra-1(10),2,4-trien-3-yl]boronic acid]: at 17β-HSD1 (setting [4]), the inhibition at 0.1 µM was found to be 39%. In addition, in the test on MCF-7 cells, the “Estrogenicity (0.1 μM)” value was “++” and the “Estrogenicity (1.0 μM)” value is on record as “++”.
With `C[C@]12CC[C@@H]3c4ccc(N)cc4CC[C@H]3[C@@H]1C[C@H](Cc1cccc(C(N)=O)c1)[C@@H]2O` [Compound 50, 3-{[(16β,17β)-3-amino-17-hydroxyestra-1,3,5(10)-trien-16-yl]methyl}benzamide], at 17β-HSD1, the inhibition at 0.1 µM turned out to be 35% and the inhibition at 1 µM stood at 43%. For the same compound, the “Estrogenicity (1.0 μM)” value in the test on MCF-7 cells was “+”.
Turning to `C[C@]12CC[C@@H]3c4ccc(F)cc4CC[C@H]3[C@@H]1C[C@H](Cc1cccc(C(N)=O)c1)[C@@H]2O` [Compound 57, 3-{[(16β,17β)-3-fluoro-17-hydroxyestra-1(10),2,4-trien-16-yl]methyl}benzamide], at 17β-HSD1, the inhibition at 0.1 µM was 48% and the inhibition at 1 µM came to 50%. The “Estrogenicity (1.0 μM)” value in the test on MCF-7 cells is given as “+”.
